Patent US8993717B2, “Gadd45beta targeting agents” (Imperial Innovations Limited, priority 2009, dated 2015)
Where two headings read alike, the source gives them in different places. Square brackets hold non-standard residues; d marks the D form. Peptide text beside a SMILES is read from it. * marks the point of attachment. NHPhenethyl = c1ccc(CCN*)cc1; Cbz = O=C(OCc1ccccc1)*; NHBn = c1ccc(CN*)cc1; Bz = O=C(c1ccccc1)*; NHPh = c1ccc(N*)cc1

What was measured:
[1] = tested on: KMS11 multiple myeloma cells; assay: [3H]thymidine incorporation assay in KMS11; format: cell-based, human
Procedure: Cultures of multiple myeloma cells and treatments with Z-DTPs were carried out as described in Example 8 (see below). The effects of Z-DTPs on the survival/proliferation of multiple myeloma cells were evaluated by the use of [^3H]thymidine) incorporation assays, performed as also described in Example 8. The amount of cell proliferation measured with each of the Z-DTPs' concentrations used and with the untreated cultures (i.e. cultures incubated with medium alone), was expressed as counts per minute (c.p.m.)—which directly correlate with the extent of cell proliferation. All experiments were performed in triplicate.
In these latter assays, the effects of Z-DTPs, Ac-DTPs and Z-LTPs on the survival/proliferation of tumour cell lines was investigated by measuring DNA synthesis using standard tritiated thymidine ([^3H]thymidine; [^3H]-TdR) uptake assays. In the analyses shown, cells were incubated for 24, 72, 120 or 144 hrs at 37° C. in the presence or absence of control or bioactive tetrapeptides, as indicated, then subjected to an additional incubation for 18 hrs with [^3H]-TdR (0.037 MBq/well, equivalent to […]). Cells were subsequently harvested onto glass fibre filter mats using a 96-well plate automated cell harvester, after which scintillation fluid was added, and [^3H]thymidine incorporation measured by liquid scintillation spectroscopy on a beta counter. The results are expressed as the percentages of the counts per minute (c.p.m.) (directly correlating with the extent of cell proliferation) measured with tetrapeptide-treated cultures relative to the c.p.m. measured with the corresponding cultures incubated with medium alone (untreated cells). All experiments were performed in triplicate.

Gadd45β/MKK7 interaction = biological target: T1, Gadd45β/MKK7 interaction (Homo sapiens, UniProt O14733); assay: ELISA competition assay of biotin-hGadd45β binding to coated GST-MKK7; settings: Table V, read-out: IC50 ELISA
T1 construct: The GST-fused full-length kinase was coated for 16 h at 4° C., at a concentration of 42 nM; made in house
T1 sequence (O14733 1-419): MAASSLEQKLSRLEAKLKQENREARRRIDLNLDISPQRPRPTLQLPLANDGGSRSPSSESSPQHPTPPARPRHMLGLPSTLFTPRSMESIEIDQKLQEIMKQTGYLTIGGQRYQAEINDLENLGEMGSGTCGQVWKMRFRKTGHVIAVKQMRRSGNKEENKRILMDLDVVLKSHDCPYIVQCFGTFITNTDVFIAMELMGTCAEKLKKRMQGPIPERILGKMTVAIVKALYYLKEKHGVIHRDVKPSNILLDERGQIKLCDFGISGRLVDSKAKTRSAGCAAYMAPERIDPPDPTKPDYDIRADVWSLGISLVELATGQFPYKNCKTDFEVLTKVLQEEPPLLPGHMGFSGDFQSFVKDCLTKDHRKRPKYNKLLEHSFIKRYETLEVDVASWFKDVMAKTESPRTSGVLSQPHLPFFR
Procedure: To evaluate the inhibitory properties of peptides, ELISA-based assays were performed. In these assays, a fusion protein of glutathione S-transferase (GST) and mitogen-activated protein kinase kinase 7 (MKK7) was coated onto wells of a 96-well plate, while biotinylated-hGadd45β was used in solution. hGadd45β was biotinylated using an EZ Link NHS-LC-biotin kit (Pierce, Rockford, Ill.), according to Tornatore et al. (Tornatore L., et al. (2008). J Mol Biol; 378:97-111).
Firstly, the association between Gadd45β and MKK7 was investigated by ELISA assays as also reported in Tornatore et al. (Tornatore L., et al. (2008). J Mol Biol; 378:97-111). The GST-fused full-length kinase was coated for 16 h at 4° C., at a concentration of 42 nM in buffer A (25 mM Tris pH 7.5, 150 mM NaCl, 1 mM DTT and 1 mM EDTA) into wells of a 96-well microliter plate. Some wells were filled with buffer alone and were used as blanks. After incubation for 16 h at 4° C., the solutions were removed and the wells were filled with 350 μL of a 1% (w/v) solution of NFDM (Non Fat Dry Milk) in PBS (phosphate buffered saline). The plate was incubated for 1 h at 37° C. in the dark. After washing with buffer T-PBS (PBS with 0.004% (v/v) Tween detergent), the wells were filled with 100 μL of biotinylated-hGadd45β at concentrations ranging from 8.4 nM to 168 nM. Each data point was performed in triplicate. Following incubation for 1 hr in the dark at 37° C. the solutions were removed and the wells were again washed with T-PBS. Then 100 μL of a 1:10,000 dilution of horseradish peroxidase-conjugated streptavidin dissolved in buffer was added to each well and the plate incubated for 1 hr at 37° C. in the dark. After removal of the enzyme solution and washing, 100 μL of the chromogenic substrate o-phenylendiamine (0.4 mg/mL in 50 mM sodium phosphate-citrate buffer, containing 0.4 mg/mL of urea in hydrogen peroxide) was added and the colour was allowed to develop in the dark for 5 min. The reaction was stopped by adding 50 μL of 2.5 M H2SO4. The absorbance at 490 nm was measured in all wells and the values were averaged after subtracting the corresponding blanks. Bound protein was then detected as described above. The molar concentration of biotinylated-hGadd45β at which the half-maximal ELISA signal is detected corresponds to the dissociation constant (KD) (Friguet B, Chaffotte A F, Djavadi-Ohaniance L, Goldberg M E. J Immunol Methods. 1985 Mar. 18; 77 (2):305-19). Binding competition assays were performed by coating GST-MKK7 at 42 nM as described, a concentration of biotinylated-hGadd45β of 21 nM (pre-saturation conditions 1:0.5 mol/mol ratio) and, in a first test, using competitors at 21 nM. The binding of biotinylated hGadd45β to GST-MKK7 was analyzed in the presence of increasing amounts of competitor peptide (concentrations ranging from 0.01 nM to 100 nM), and the values obtained with the competitor were expressed as the percentage of the binding detected in the absence of competitor. […] According to the convention adopted in the table “L-Xaa” and “D-Xaa” refer to the L and D forms of amino acid Xaa.
A simplified combinatorial peptide library (Marasco et al. 2008, Curr. Protein Pept. Sci. 9:447-67) was screened for antagonists of the Gadd45β/MKK7 interaction. This library contained a total of 12^4=20,736 different tetrapeptides formed by combinations of the following amino acid residues Gln (Q), Ser (S), Arg (R), Ala (A), Tyr (Y), Pro (P), Met (M), Cys (C), Phe (F), Leu (L), His (H), Asp (D), and was iteratively deconvoluted in four steps by ELISA competition assays using at each step coated MKK7 (42 nM), soluble-biotin-hGadd45β (21 nM) and each of the 12 sub-libraries (42 nM).

[2] = tested on: KMS12 multiple myeloma cells; assay: [3H]thymidine incorporation assay in KMS12; format: cell-based, human
Procedure: In these latter assays, the effects of Z-DTPs, Ac-DTPs and Z-LTPs on the survival/proliferation of tumour cell lines was investigated by measuring DNA synthesis using standard tritiated thymidine ([^3H]thymidine; [^3H]-TdR) uptake assays. In the analyses shown, cells were incubated for 24, 72, 120 or 144 hrs at 37° C. in the presence or absence of control or bioactive tetrapeptides, as indicated, then subjected to an additional incubation for 18 hrs with [^3H]-TdR (0.037 MBq/well, equivalent to 0.5 μCi/well). Cells were subsequently harvested onto glass fibre filter mats using a 96-well plate automated cell harvester, after which scintillation fluid was added, and [^3H]thymidine incorporation measured by liquid scintillation spectroscopy on a beta counter. The results are expressed as the percentages of the counts per minute (c.p.m.) (directly correlating with the extent of cell proliferation) measured with tetrapeptide-treated cultures relative to the c.p.m. measured with the corresponding cultures incubated with medium alone (untreated cells). All experiments were performed in triplicate.

[3] = Day 3, read-out: IC50 [H^3] thymidine incorporation assay in KMS11
[4] = Day 6, read-out: IC50 [H^3] thymidine incorporation assay in KMS11
[5] = Day 1, read-out: IC50 [H^3] thymidine incorporation assay in KMS11

SMILES	IC50 [1, 3] [µM]	IC50 [1, 4] [µM]	IC50 [1, 5] [µM]	IC50 [1] [µM]	other results
O=C(O)C[C@@H](NC(=O)c1ccccc1)C(=O)N[C@H](Cc1c[nH]cn1)C(=O)Nc1ccccc1 [Compound 2, X1-Asp-His-Y1] (Bz-[dD]-[dH]-NHPh)				> 10	IC50 (Gadd45β/MKK7 interaction; FIG. 3C): > 0.001 µM; IC50 [2]: > 10 µM
O=C(O)C[C@@H](NC(=O)c1ccccc1)C(=O)N[C@H](Cc1c[nH]cn1)C(=O)NCc1ccccc1 [Compound 3, X1-Asp-His-Y2] (Bz-[dD]-[dH]-NHBn)				> 10	IC50 (Gadd45β/MKK7 interaction; FIG. 3C): > 0.001 µM; IC50 [2]: > 10 µM
O=C(O)C[C@@H](NC(=O)c1ccccc1)C(=O)N[C@H](Cc1c[nH]cn1)C(=O)NCCc1ccccc1 [Compound 4, X1-Asp-His-Y3] (Bz-[dD]-[dH]-NHPhenethyl)				> 10	IC50 (Gadd45β/MKK7 interaction; peptides 0.01-10 nM): 0.0005 µM; IC50 [2]: > 10 µM
O=C(O)C[C@@H](NC(=O)c1ccc(O)cc1)C(=O)N[C@H](Cc1c[nH]cn1)C(=O)Nc1ccccc1 [Compound 5, X2-Asp-His-Y1]				> 10	IC50 [2]: > 10 µM
O=C(O)C[C@@H](NC(=O)c1ccc(O)cc1)C(=O)N[C@H](Cc1c[nH]cn1)C(=O)NCc1ccccc1 [Compound 6, X2-Asp-His-Y2]				> 10	IC50 [2]: > 10 µM
NC(=O)[C@@H](Cc1ccccc1)NC(=O)[C@@H](CC(=O)O)NC(=O)[C@@H](Cc1ccc(O)cc1)NC(=O)OCc1ccccc1 [Compound 8, Z-Tyr-Asp-Phe-NH2] (Cbz-[dY]-[dD]-[dF]-NH2)	> 10	> 10			IC50 (Gadd45β/MKK7 interaction; peptides 0.01-10 nM): 0.000162 µM
N=C(N)NCCC[C@@H](NC(=O)[C@@H](CCC(=O)O)NC(=O)c1ccccc1)C(=O)Nc1ccccc1 [Compound 10, X1-Glu-Arg-Y1] (Bz-[dE]-[dR]-NHPh)				> 10	
N=C(N)NCCC[C@@H](NC(=O)[C@@H](CCC(=O)O)NC(=O)c1ccccc1)C(=O)NCc1ccccc1 [Compound 11, X1-Glu-Arg-Y2] (Bz-[dE]-[dR]-NHBn)				> 10	
N=C(N)NCCC[C@@H](NC(=O)[C@@H](CCC(=O)O)NC(=O)c1ccccc1)C(=O)NCCc1ccccc1 [Compound 12, X1-Glu-Arg-Y3] (Bz-[dE]-[dR]-NHPhenethyl)				> 10	
N=C(N)NCCC[C@@H](NC(=O)[C@@H](CCC(=O)O)NC(=O)c1ccc(O)cc1)C(=O)Nc1ccccc1 [Compound 13, X2-Glu-Arg-Y1]				> 10	
N=C(N)NCCC[C@@H](NC(=O)[C@@H](CCC(=O)O)NC(=O)c1ccc(O)cc1)C(=O)NCc1ccccc1 [Compound 14, X2-Glu-Arg-Y2]				> 10	
CC(C)C[C@@H](NC(=O)[C@@H](Cc1ccc(O)cc1)NC(=O)OCc1ccccc1)C(=O)N[C@H](Cc1ccccc1)C(N)=O [Z-Tyr-Leu-Phe-NH2] (Cbz-[dY]-[dL]-[dF]-NH2)	> 10	> 10	> 10		
CSCC[C@@H](NC(=O)[C@@H](Cc1ccc(O)cc1)NC(=O)OCc1ccccc1)C(=O)N[C@H](Cc1ccccc1)C(N)=O [Z-Tyr-Met-Phe-NH2] (Cbz-[dY]-[dM]-[dF]-NH2)	> 10	> 10	> 10		

More lines, main results first:

IC50 [1, 3] [µM]	IC50 [1, 4] [µM]	IC50 [1, 5] [µM]	SMILES	IC50 [1] [µM]	other results
> 10	> 10	> 10	N=C(N)NCCC[C@@H](NC(=O)[C@@H](CC(N)=O)NC(=O)[C@@H](Cc1ccc(O)cc1)NC(=O)OCc1ccccc1)C(=O)N[C@H](Cc1ccccc1)C(N)=O [Z-Tyr-Asn-Arg-Phe-NH2] (Cbz-[dY][dN][dR][dF]-NH2)		
> 10	> 10	> 10	NC(=O)C[C@@H](NC(=O)[C@@H](Cc1ccc(O)cc1)NC(=O)OCc1ccccc1)C(=O)N[C@H](Cc1ccccc1)C(N)=O [Z-Tyr-Asn-Phe-NH2] (Cbz-[dY]-[dN]-[dF]-NH2)		
> 10	> 10	> 10	N=C(N)NCCC[C@@H](NC(=O)[C@@H](CCC(N)=O)NC(=O)[C@@H](Cc1ccc(O)cc1)NC(=O)OCc1ccccc1)C(=O)N[C@H](Cc1ccccc1)C(N)=O [Z-Tyr-Gln-Arg-Phe-NH2] (Cbz-[dY][dQ][dR][dF]-NH2)		
> 10	> 10	> 10	NC(=O)CC[C@@H](NC(=O)[C@@H](Cc1ccc(O)cc1)NC(=O)OCc1ccccc1)C(=O)N[C@H](Cc1ccccc1)C(N)=O [Z-Tyr-Gln-Phe-NH2] (Cbz-[dY]-[dQ]-[dF]-NH2)		
> 10	> 10	> 10	CC(C)C[C@@H](NC(=O)[C@@H](Cc1ccc(O)cc1)NC(=O)OCc1ccccc1)C(=O)N[C@H](CCCNC(=N)N)C(=O)N[C@H](Cc1ccccc1)C(N)=O [Z-Tyr-Leu-Arg-Phe-NH2] (Cbz-[dY][dL][dR][dF]-NH2)		
> 10	> 10	> 10	CSCC[C@@H](NC(=O)[C@@H](Cc1ccc(O)cc1)NC(=O)OCc1ccccc1)C(=O)N[C@H](CCCNC(=N)N)C(=O)N[C@H](Cc1ccccc1)C(N)=O [Z-Tyr-Met-Arg-Phe-NH2] (Cbz-[dY][dM][dR][dF]-NH2)		
